pIC50: −log10 of the molar value. Values after ≈ are worked out from the molar mass of the structure shown.
Key:
LMP7 = biological target: T1, LMP7 (Homo sapiens, UniProt P20618+P28062); test: ProCISE proteasome subunit assay, LMP7; assay type: biochemical; settings: MOLT4 lysate Hu 1 h
T1 construct: endogenous in cells; host or cells: MOLT-4
Experimental: (§1) This assay was used to assess the inhibitory activity against each of LMP2, LMP7, MECL1, β1, β2, and β5. Briefly, test compounds were serially diluted in DMSO at 100× concentration, then diluted to 10× in aqueous hypotonic lysis buffer. Lysate from the human acute lymphoblastic leukemia cell line, MOLT-4, was treated for 1 hour at 25° C. with compound at a final 1× concentration. […] Following this, lysate was denatured in guanidine hydrochloride, and subunits bound to probe were isolated with streptavidin-conjugated sepharose beads. Individual subunits were probed with subunit-specific primary antibodies, followed by HRP-conjugated secondary antibodies. A chemiluminescent substrate was used to generate signal associated with HRP binding, which was detected on a plate reader. Luminescent signal was normalized to protein content, then, percent activity calculated relative to DMSO-treated controls to generate IC50 curves.

β5 = biological target: T2, β5 (Homo sapiens, UniProt P20618+P28074); test: ProCISE proteasome subunit assay, β5; assay type: biochemical; settings: MOLT4 lysate Hu 1 h
T2 construct: endogenous in cells; host or cells: MOLT-4
Experimental: as §1

Solubility pH 7 = assay type: physicochemical; settings: pH 7, aqueous buffer
[1] = biological target: i20S (20S immunoproteasome) (Homo sapiens, UniProt P20618+P28062); test: 20S proteasome assay, chymotrypsin-like activity (LLVY), i20S; assay type: biochemical; settings: LLVY i20S Hu 1 h CONT: IC50 (nM), succinyl-Leu-Leu-Val-Tyr-AMC
Text: (§2) Assay buffer consisted of TE buffer [20 mmol/L Tris (pH 8.0), 0.5 mmol/L EDTA] with (20S) or without (cell lysate) 0.03% SDS. Reactions were initiated by enzyme or lysate addition and monitored for AMC product formation at 27jC with a plate-based spectofluorometer (Tecan).

[2] = biological target: c20S (constitutive 20S proteasome) (Homo sapiens, UniProt P20618+P28074); test: 20S proteasome assay, chymotrypsin-like activity (LLVY), c20S; assay type: biochemical; settings: LLVY c20S Hu 1 h CONT: IC50 (nM), succinyl-Leu-Leu-Val-Tyr-AMC
Text: as §2

Row | SMILES | pIC50 (LMP7) | pIC50 (β5) | solubility (Solubility pH 7) | IC50 [1] | IC50 [2]
1 | COc1ccc(C[C@H](NC(=O)[C@@H](C)NC(=O)c2cc(C)no2)C(=O)N[C@@H](CC2CCCC2)C(=O)[C@@]2(C)CO2)cc1 [Compound C-2023, N—((R)-1-(((S)-1-(((S)-3-cyclopentyl-1-((R)-2-methyloxiran-2-yl)-1-oxopropan-2-yl)amino)-3-(4-methoxyphenyl)-1-oxopropan-2-yl)amino)-1-oxopropan-2-yl)-3-methylisoxazole-5-carboxamide] | 6.50 | 5.57 | 100 µg/mL (≈ 181 µM) | 55.3 nM | 857 nM
2 | COc1ccc(C[C@H](NC(=O)[C@@H](C)NC(=O)Cc2cc(C)no2)C(=O)N[C@@H](CC2CCCC2)C(=O)[C@@]2(C)CO2)cc1 [Compound C-2015, (S)—N—((S)-3-cyclopentyl-1-((R)-2-methyloxiran-2-yl)-1-oxopropan-2-yl)-3-(4-methoxyphenyl)-2-((R)-2-(2-(3-methylisoxazol-5-yl)acetamido)propanamido)propanamide] | 5.51 | 4.52 | 169 µg/mL (≈ 298 µM) | 2920 nM | 18600 nM
3 | COc1ccc(C[C@H](NC(=O)[C@@H](C)NC(=O)CC(C)(C)O)C(=O)N[C@@H](CC2CCCC2)C(=O)[C@@]2(C)CO2)cc1 [Compound C-2028, N—((R)-1-(((S)-1-(((S)-3-cyclopentyl-1-((R)-2-methyloxiran-2-yl)-1-oxopropan-2-yl)amino)-3-(4-methoxyphenyl)-1-oxopropan-2-yl)amino)-1-oxopropan-2-yl)-3-hydroxy-3-methylbutanamide] | 7.12 | 5.93 | 776 µg/mL (≈ 1420 µM) | 11.9 nM | 323 nM
4 | COc1ccc(C[C@H](NC(=O)[C@@H](CN2CCOCC2)NC(=O)c2cc(C)no2)C(=O)N[C@@H](CC2CCCC2)C(=O)[C@@]2(C)CO2)cc1 [Compound C-2045, N—((R)-1-(((S)-1-(((S)-3-cyclopentyl-1-((R)-2-methyloxiran-2-yl)-1-oxopropan-2-yl)amino)-3-(4-methoxyphenyl)-1-oxopropan-2-yl)amino)-3-morpholino-1-oxopropan-2-yl)-3-methylisoxazole-5-carboxamide] | 6.66 | 5.53 | 160 µg/mL (≈ 250 µM) | 102 nM | 1290 nM
5 | COCCC(=O)N[C@H](C)C(=O)N[C@@H](Cc1ccc(OC)cc1)C(=O)N[C@@H](CC1CCCC1)C(=O)[C@@]1(C)CO1 [Compound C-2018, (S)—N—((S)-3-cyclopentyl-1-((R)-2-methyloxiran-2-yl)-1-oxopropan-2-yl)-3-(4-methoxyphenyl)-2-((R)-2-(3-methoxypropanamido)propanamido)propanamide] | 5.93 | 4.46 | 129 µg/mL (≈ 243 µM) | 570 nM | 12800 nM
6 | CCOCC(=O)N[C@H](C)C(=O)N[C@@H](Cc1ccc(OC)cc1)C(=O)N[C@@H](CC1CCCC1)C(=O)[C@@]1(C)CO1 [Compound C-2021, (S)—N—((S)-3-cyclopentyl-1-((R)-2-methyloxiran-2-yl)-1-oxopropan-2-yl)-2-((R)-2-(2-ethoxyacetamido)propanamido)-3-(4-methoxyphenyl)propanamide] | 5.72 | 4.51 | 103 µg/mL (≈ 193 µM) | 1220 nM | 99000 nM
7 | COc1ccc(C[C@H](NC(=O)[C@H](C)NC(=O)C(C)(F)F)C(=O)N[C@@H](Cc2ccccc2)C(=O)[C@@]2(C)CO2)cc1 [Compound C-2006] | 7.46 | 6.75 | – | 6.1 nM | 29 nM
8 | COc1ccc(C[C@H](NC(=O)[C@H]2CCC(=O)N2)C(=O)N[C@@H](Cc2ccccc2)C(=O)[C@@]2(C)CO2)cc1 [Compound C-3012, (R)—N—((S)-3-(4-methoxyphenyl)-1-(((S)-1-((R)-2-methyloxiran-2-yl)-1-oxo-3-phenylpropan-2-yl)amino)-1-oxopropan-2-yl)-5-oxopyrrolidine-2-carboxamide] | 5.56 | 5.22 | 4410 µg/mL (≈ 8930 µM) | 4790 nM | 14500 nM
9 | COc1ccc(C[C@H](NC(=O)[C@H](CO)NC(C)=O)C(=O)N[C@@H](Cc2ccccc2)C(=O)[C@@]2(C)CO2)cc1 [Compound C-2007, (S)-2-acetamido-3-hydroxy-N—((S)-3-(4-methoxyphenyl)-1-(((S)-1-((R)-2-methyloxiran-2-yl)-1-oxo-3-phenylpropan-2-yl)amino)-1-oxopropan-2-yl)propanamide] | 6.67 | 6.32 | 728 µg/mL (≈ 1420 µM) | 118 nM | 432 nM
10 | COc1ccc(C[C@H](NC(=O)[C@@H](C)NC(=O)C[C@H](C)O)C(=O)N[C@@H](CC2CCCC2)C(=O)[C@@]2(C)CO2)cc1 [Compound C-2043, (S)—N—((R)-1-(((S)-1-(((S)-3-cyclopentyl-1-((R)-2-methyloxiran-2-yl)-1-oxopropan-2-yl)amino)-3-(4-methoxyphenyl)-1-oxopropan-2-yl)amino)-1-oxopropan-2-yl)-3-hydroxybutanamide] | 6.23 | 4.96 | 2380 µg/mL (≈ 4480 µM) | 271 nM | 15100 nM
11 | COc1ccc(C[C@H](NC(=O)[C@H](C)NC(=O)C(F)(F)F)C(=O)N[C@@H](Cc2ccccc2)C(=O)[C@@]2(C)CO2)cc1 [Compound C-2011, (S)-3-(4-Methoxyphenyl)-N—((S)-1-((R)-2-methyloxiran-2-yl)-1-oxo-3-phenylpropan-2-yl)-2-((S)-2-(2,2,2-trifluoroacetamido)propanamido)propanamide] | 7.01 | 6.47 | – | 13.5 nM | 68.6 nM
12 | COc1ccc(C[C@H](NC(=O)[C@H](C)NC(=O)CCO)C(=O)N[C@@H](Cc2ccccc2)C(=O)[C@@]2(C)CO2)cc1 [Compound C-2012, (S)-2-((S)-2-(3-hydroxypropanamido)propanamido)-3-(4-methoxyphenyl)-N—((S)-1-((R)-2-methyloxiran-2-yl)-1-oxo-3-phenylpropan-2-yl)propanamide] | – | – | 3830 µg/mL (≈ 7280 µM) | 86.9 nM | 262 nM
13 | COC(=O)N[C@H](C)C(=O)N[C@@H](Cc1ccc(OC)cc1)C(=O)N[C@@H](Cc1ccccc1)C(=O)[C@@]1(C)CO1 [Compound C-2010, Methyl ((R)-1-(((S)-3-(4-methoxyphenyl)-1-(((S)-1-((R)-2-methyloxiran-2-yl)-1-oxo-3-phenylpropan-2-yl)amino)-1-oxopropan-2-yl)amino)-1-oxopropan-2-yl)carbamate] | – | – | 300 µg/mL (≈ 587 µM) | 414 nM | 1050 nM
14 | COc1ccc(C[C@H](NC(=O)[C@]2(C)CCC(=O)N2)C(=O)N[C@@H](Cc2ccccc2)C(=O)[C@@]2(C)CO2)cc1 [Compound C-3011, (S)—N—((S)-3-(4-methoxyphenyl)-1-(((S)-1-((R)-2-methyloxiran-2-yl)-1-oxo-3-phenylpropan-2-yl)amino)-1-oxopropan-2-yl)-2-methyl-5-oxopyrrolidine-2-carboxamide] | – | – | 1230 µg/mL (≈ 2420 µM) | 4550 nM | 3320 nM
15 | COc1ccc(C[C@H](NC(=O)[C@H](C)NC(=O)Cc2cc(C)no2)C(=O)N[C@@H](CC2CCCC2)C(=O)[C@@]2(C)CO2)cc1 [Compound C-2014, (S)—N—((S)-3-cyclopentyl-1-((R)-2-methyloxiran-2-yl)-1-oxopropan-2-yl)-3-(4-methoxyphenyl)-2-((S)-2-(2-(3-methylisoxazol-5-yl)acetamido)propanamido)propanamide] | 7.25 | 6.43 | – | 16.6 nM | 45.7 nM
